± gives the expanded uncertainty stated by the source.
Tests used:
[1] = Glass
[2] = molar heat capacity at constant pressure; details: 101.33 kPa

CC(C)CCO [3-methylbutan-1-ol]
Details | Glass transition temperature [°C]
[1] | -155 ± 3

[2]
Details | molar heat capacity at constant pressure [J/K/mol]
79.29 K, Glass | 64.16 ± 1.6
79.93 K, Glass | 64.23 ± 1.6
81.22 K, Glass | 65.13 ± 1.6
83.16 K, Glass | 66.6 ± 1.6
85.07 K, Glass | 67.98 ± 1.7
86.97 K, Glass | 69.22 ± 1.7
88.88 K, Glass | 70.53 ± 1.7
90.79 K, Glass | 71.96 ± 2.1
92.71 K, Glass | 73.36 ± 2.1
94.62 K, Glass | 74.71 ± 2.2
96.54 K, Glass | 76.12 ± 2.2
98.47 K, Glass | 77.7 ± 2.2
100.4 K, Glass | 79.43 ± 2.2
102.33 K, Glass | 80.27 ± 2.3
104.26 K, Glass | 81.54 ± 2.3
106.19 K, Glass | 83.08 ± 2.3
108.13 K, Glass | 84.68 ± 2.3
110.07 K, Glass | 86.19 ± 2.4
112.01 K, Glass | 87.96 ± 2.4
113.94 K, Glass | 90.43 ± 2.4
115.88 K, Glass | 94.62 ± 2.5
123.04 K, Liquid | 144.09 ± 3.5
124.93 K, Liquid | 144.11 ± 3.5
126.89 K, Liquid | 144.29 ± 3.5
128.85 K, Liquid | 144.62 ± 3.5
130.82 K, Liquid | 144.96 ± 3.5
132.79 K, Liquid | 145.22 ± 3.5
134.76 K, Liquid | 145.47 ± 3.5
136.73 K, Liquid | 145.74 ± 3.5
138.7 K, Liquid | 146.13 ± 3.5
140.67 K, Liquid | 146.33 ± 3.5
142.65 K, Liquid | 146.61 ± 3.5
144.62 K, Liquid | 146.82 ± 3.5
146.59 K, Liquid | 147.14 ± 3.5
148.57 K, Liquid | 147.5 ± 3.5
150.54 K, Liquid | 147.86 ± 3.5
152.52 K, Liquid | 148.08 ± 3.6
154.49 K, Liquid | 148.41 ± 3.6
156.46 K, Liquid | 148.76 ± 3.6
158.43 K, Liquid | 148.95 ± 3.6
160.41 K, Liquid | 149.4 ± 3.6
162.38 K, Liquid | 149.76 ± 3.6
164.35 K, Liquid | 149.96 ± 3.6
166.32 K, Liquid | 150.38 ± 3.6
168.29 K, Liquid | 150.9 ± 3.6
170.27 K, Liquid | 151.21 ± 3.6
172.24 K, Liquid | 151.76 ± 3.6
174.21 K, Liquid | 152.03 ± 3.6
176.19 K, Liquid | 152.42 ± 3.6
178.16 K, Liquid | 152.92 ± 3.6
180.14 K, Liquid | 153.49 ± 3.7
182.11 K, Liquid | 153.84 ± 3.7
184.09 K, Liquid | 154.42 ± 3.7
186.07 K, Liquid | 154.93 ± 3.7
188.05 K, Liquid | 155.51 ± 3.7
190.03 K, Liquid | 156.14 ± 3.7
192.01 K, Liquid | 156.62 ± 3.7
193.99 K, Liquid | 157.15 ± 3.7
195.96 K, Liquid | 157.72 ± 3.8
197.94 K, Liquid | 158.12 ± 3.8
199.92 K, Liquid | 158.79 ± 3.8
201.91 K, Liquid | 159.5 ± 3.8

From the NIST ThermoML archive (doi:10.1021/je060411g)
